The values below come from patent EP0908457B1, “3-(1,2-benzisothiazol- and isoxazol-5-Y1)-2,4(1H,3H)-pyrimidinedione or thione and 3-(1,2-benzisothiazol- and isoxazol-5-y1)-4(3H)-pyrimidinone or thione herbicidal agents” (BASF AKTIENGESELLSCHAFT, priority 1997, dated 1999).

For data set [1], the system named is Monochoria vaginalis, Presl. The experiment in a line: Preemergence weed control under flooded paddy conditions, MOOVA (Monochoria). It counts as in vivo. The following applies: flooded paddy; for MOOVA herbicidal rating: preemergence, rated three to four weeks after treatment; for MOOVA: preemergence weeds, herbicidal effect rating 0-9, three to four weeks after treatment.

The subject of data set [2] is Cyperus serotinus, Rottb. The data set can be described thus: Preemergence weed control under flooded paddy conditions, CYPSE (Flatsedge). It counts as in vivo. The following applies: for CYPSE herbicidal rating: preemergence, rated three to four weeks after treatment; for CYPSE: preemergence weeds, herbicidal effect rating 0-9, three to four weeks after treatment.
Data set [3] relates to Oryza sativa, (L.) Tebonnet. The experiment in a line: Rice tolerance to post-transplant applications under flooded paddy conditions (Example 187), ORYSAT (Rice, Tebonnet). Conditions: for ORYSAT herbicidal rating (rice tolerance): rated three to four weeks after treatment; for ORYSAT: herbicidal effect rating 0-9, three to four weeks after treatment.
The next data set concerns Sagittaria pygmaea, L. The experiment in a line: Preemergence weed control under flooded paddy conditions, SAGPY (Arrowhead (Pygmaea)). It counts as in vivo. Conditions: flooded paddy; for SAGPY herbicidal rating: preemergence, rated three to four weeks after treatment; for SAGPY: preemergence weeds, herbicidal effect rating 0-9, three to four weeks after treatment.
Data set [4] has as its system Echinochloa oryzoides (Ard.) Fritsch. The data set can be described thus: Preemergence weed control under flooded paddy conditions, ECHORC (Watergrass (Calif.)). It counts as in vivo. Conditions: flooded paddy; for ECHORC herbicidal rating: preemergence, rated three to four weeks after treatment; for ECHORC: preemergence weeds, herbicidal effect rating 0-9, three to four weeks after treatment.

In the next data set the test system is Cyperus iria. The data set can be described thus: Preemergence weed control under flooded paddy conditions, CYPIR (Rice Flatsedge). It counts as in vivo. Conditions: flooded paddy; for CYPIR herbicidal rating: preemergence, rated three to four weeks after treatment; for CYPIR: preemergence weeds, herbicidal effect rating 0-9, three to four weeks after treatment.

As to `Cn1c(C(F)(F)F)cc(=O)n(-c2ccc3snc(C(=O)NS(=O)(=O)CCc4ccccc4)c3c2)c1=O` [Example 485, 1,2-Benzisothiazole-3-carboxamide, 5-[3,6-dihydro-3-methyl-2,6-dioxo-4-(trifluoromethyl)-1(2H)-pyrimidinyl]-N-(phenethylsulfonyl)-], the MOOVA herbicidal rating worked out at 4.0 in data set [1] (0.0320 kg/ha), 6.0 in data set [1] (0.0620 kg/ha), 7.0 in data set [1] (0.1250 kg/ha) and 8.0 in data set [1] (0.2500 kg/ha). The CYPSE herbicidal rating in data set [2] (0.0320 kg/ha) and in data set [2] (0.0620 kg/ha) was 0.0 throughout. In addition, the “ORYSAT herbicidal rating (rice tolerance)” value in data set [3] (0.0320 kg/ha) was found to be 0.0; in data set [3] (0.0620 kg/ha), 2.0; in data set [3] (0.1250 kg/ha) it was 4.0; in data set [3] (0.2500 kg/ha) it was 5.0. Further, the SAGPY herbicidal rating in the data set on Sagittaria pygmaea, L. (0.0320 kg/ha) is 0.0; in the data set on Sagittaria pygmaea, L. (0.0620 kg/ha) it was 0.0; in the data set with Sagittaria pygmaea, L. (0.1250 kg/ha), 0.0; in the data set on Sagittaria pygmaea, L. (0.2500 kg/ha), 3.0. For the same compound, the ECHORC herbicidal rating in data set [4] (0.0320 kg/ha) was determined as 4.0; in data set [4] (0.0620 kg/ha) it was 6.0; in data set [4] (0.1250 kg/ha) it was 6.0; in data set [4] (0.2500 kg/ha) it was 9.0. The CYPIR herbicidal rating stood at 2.0 in the data set with Cyperus iria (0.0320 kg/ha), 4.0 in the data set with Cyperus iria (0.0620 kg/ha), 5.0 in the data set on Cyperus iria (0.1250 kg/ha) and 6.0 in the data set on Cyperus iria (0.2500 kg/ha).
With `Cn1c(C(F)(F)F)cc(=O)n(-c2ccc3snc(C(C)(C)C(=O)O)c3c2)c1=O` [Example 466, 1,2-Benzisothiazole-3-acetic acid, 5-[3,6-dihydro-3-methyl-2,6-dioxo-4-(trifluoromethyl)-1(2H)-pyrimidinyl]-alpha,alpha-dimethyl-], the MOOVA herbicidal rating in data set [1] (0.0320 kg/ha) came out at 7.0; in data set [1] (0.0620 kg/ha) it was 7.0; in data set [1] (0.1250 kg/ha), 9.0; in data set [1] (0.2500 kg/ha), 9.0. In addition, in data set [2] (0.2500 kg/ha), the CYPSE herbicidal rating was 1.0. Besides, the “ORYSAT herbicidal rating (rice tolerance)” value was 4.0 in data set [3] (0.0320 kg/ha), 5.0 in data set [3] (0.0620 kg/ha), 7.0 in data set [3] (0.1250 kg/ha) and 9.0 in data set [3] (0.2500 kg/ha). In addition, the SAGPY herbicidal rating with Sagittaria pygmaea, L. (0.0320 kg/ha) is 0.0; with Sagittaria pygmaea, L. (0.0620 kg/ha), 0.0; with Sagittaria pygmaea, L. (0.1250 kg/ha), 3.0; in the data set on Sagittaria pygmaea, L. (0.2500 kg/ha), 7.0. Further, the ECHORC herbicidal rating is on record as 2.0 in data set [4] (0.0320 kg/ha), 4.0 in data set [4] (0.0620 kg/ha), 5.0 in data set [4] (0.1250 kg/ha) and 7.0 in data set [4] (0.2500 kg/ha). In addition, the CYPIR herbicidal rating in the data set with Cyperus iria (0.0320 kg/ha) was 3.0; in the data set with Cyperus iria (0.0620 kg/ha) it was 3.0; in the data set on Cyperus iria (0.1250 kg/ha) it was 7.0; with Cyperus iria (0.2500 kg/ha) it was 9.0.
Regarding `CCOCN(C(=O)c1nsc2ccc(-n3c(=O)cc(C(F)(F)F)n(C)c3=O)cc12)S(=O)(=O)Cc1ccccc1` [Example 440, 1,2-Benzisothiazole-3-carboxamide, N-(benzylsulfonyl)-5-[3,6-dihydro-3-methyl-2,6-dioxo-4-(trifluoromethyl)-1(2H)-pyrimidinyl]-N-(ethoxymethyl)-], the MOOVA in data set [1] (0.0320 kg/ha) is listed as 7.0; in data set [1] (0.0620 kg/ha), 9.0; in data set [1] (0.1250 kg/ha) it was 9.0; in data set [1] (0.2500 kg/ha), 9.0. Also, the CYPSE in data set [2] (0.0320 kg/ha) is 6.0; in data set [2] (0.0620 kg/ha), 9.0; in data set [2] (0.1250 kg/ha), 9.0; in data set [2] (0.2500 kg/ha), 9.0. Also, the ORYSAT came to 3.0 in data set [3] (0.0320 kg/ha), 4.0 in data set [3] (0.0620 kg/ha), 4.0 in data set [3] (0.1250 kg/ha) and 4.0 in data set [3] (0.2500 kg/ha). Moreover, the SAGPY is reported as 4.0 in the data set on Sagittaria pygmaea, L. (0.0320 kg/ha); 6.0 in the data set with Sagittaria pygmaea, L. (0.0620 kg/ha); 7.0 in the data set on Sagittaria pygmaea, L. (0.1250 kg/ha); 9.0 in the data set with Sagittaria pygmaea, L. (0.2500 kg/ha). Besides, the ECHORC in data set [4] (0.0320 kg/ha) amounted to 5.0; in data set [4] (0.0620 kg/ha), 7.0; in data set [4] (0.1250 kg/ha) it was 9.0; in data set [4] (0.2500 kg/ha) it was 9.0. The CYPIR in the data set with Cyperus iria (0.0320 kg/ha) amounted to 5.0; in the data set with Cyperus iria (0.0620 kg/ha) it was 9.0; in the data set on Cyperus iria (0.1250 kg/ha), 9.0; in the data set on Cyperus iria (0.2500 kg/ha), 9.0.
For `CCOCOCc1nsc2ccc(-n3c(=O)cc(C(F)(F)F)n(C)c3=O)cc12` [Example 455, 2,4(1H,3H)-Pyrimidinedione, 3-(3-[(ethoxymethoxy)methyl]-1,2-benzisothiazol-5-yl}-1-methyl-6-(trifluoromethyl)-], the MOOVA was determined as 6.0 in data set [1] (0.0320 kg/ha), 7.0 in data set [1] (0.0620 kg/ha), 9.0 in data set [1] (0.1250 kg/ha) and 9.0 in data set [1] (0.2500 kg/ha). Further, the CYPSE is recorded as 2.0 in data set [2] (0.0320 kg/ha), 6.0 in data set [2] (0.0620 kg/ha), 8.0 in data set [2] (0.1250 kg/ha) and 9.0 in data set [2] (0.2500 kg/ha). Besides, the ORYSAT in data set [3] (0.0320 kg/ha) was found to be 6.0; in data set [3] (0.0620 kg/ha), 8.0; in data set [3] (0.1250 kg/ha), 9.0; in data set [3] (0.2500 kg/ha), 9.0. Further, the SAGPY in the data set with Sagittaria pygmaea, L. (0.0320 kg/ha) was found to be 4.0; in the data set on Sagittaria pygmaea, L. (0.0620 kg/ha), 6.0; in the data set with Sagittaria pygmaea, L. (0.1250 kg/ha), 7.0; in the data set on Sagittaria pygmaea, L. (0.2500 kg/ha), 9.0. Also, the ECHORC in data set [4] (0.0320 kg/ha), in data set [4] (0.0620 kg/ha), in data set [4] (0.1250 kg/ha) and in data set [4] (0.2500 kg/ha) was 9.0 in each case. Also, the CYPIR in the data set on Cyperus iria (0.0320 kg/ha) turned out to be 6.0; with Cyperus iria (0.0620 kg/ha), 7.0; in the data set with Cyperus iria (0.1250 kg/ha), 9.0; in the data set on Cyperus iria (0.2500 kg/ha), 9.0.
